The values that follow come from patent US20040067891A1, “Therapeutic and/or preventive agents for diseases due to retinal ischemia” (priority 2000, published 2004).

For data set [1], the system named is retinal disorders due to transient retinal ischemia. As to the kind of experiment: rat model with retinal disorders due to transient retinal ischemia. It counts as in vivo. As to conditions: SD male rats. Here is the method:
Effects of the compound represented by the formula (I) (which will hereinafter be called “compound of the present invention”) on a rat model with retinal disorders due to transient retinal ischemia;
The model with retinal disorders due to transient retinal ischemia was prepared in accordance with the method described in Eur. J. Pharmaco., 350, 53-57 (1998).
After rats (SD male rats, 9-week-old (purchased from Charles River Japan, Inc.)) were weighed, pentobarbital sodium (Pentbarbital Na) (50-75 mg/kg) was intraperitoneally administered to anesthetize them. They were fixed to a platform, and kept warm at around 37° C. A perfusate for ophthalmic surgery (“BSS PLUS”; product of Santen Pharmaceutical) was hung so that the height from the position of the eyes of the rats would be 170 cm±5 cm. This height permitted application of pressure of about 130 mmHg. To the perfusate bottle was connected an extension tube and an injection needle (27 gauge×¾ inch) was attached to another end of the tube. […]
After the eyeballs were immobilized in a Davidson's fixative and a paraffin section was prepared at the cross-section passing through the optic papilla, it was dyed with hematoxylin and eosin (H.E.). […] The number of granule cells (GCL (ganglion cell layer), cell/mm) per 1 mm width of the optic papilla was counted by optical microscopic examination. […]

In another data set the test system is rats. The data set can be described thus: single-dose oral toxicity in rats. It counts as in vivo, rat. As to conditions: single-dose oral administration to rats. As to the method:
The compound represented by the formula (I) or a non-toxic salt thereof has markedly low toxicity so that use of it as a pharmaceutical can be considered as safe enough. For example, the minimum lethal dose of the compound represented by the formula (I) by single-dose oral administration to rats was 2000 mg/kg or more.

`CC(C)(C)OC(=O)N1CSC[C@H]1C(=O)N[C@@H](CSCC1CCCCC1)C(=O)NC1CCN(Cc2ccccc2)CC1` [Compound of the present invention, (2R)-N-(1-Benzylpiperidin-4-yl)-3-cyclohexylmethylthio-2-((4R)-3-t-butoxycarbonylthiazolidin-4-ylcarbonylamino)propanamide]: the “The number of granule cells (GCL)” value in data set [1] (100 mg/5 mL/kg oral one hour before 45 min ischemia, counted one week after ischemia, per 1 mm width of the optic papilla) amounted to 49.2 cell/mm. The “inhibiting activity to the model of retinal disorders due to transient retinal ischemia” value in data set [1] (100 mg/kg oral one hour before ischemia, from granule cell counts of Table 1) came out at 34%. Further, in the data set with rats, the minimum lethal dose was not below 2000 mg/kg.
